Consider two molecules from PMC9399069, “Imaging PARP with [^18F]rucaparib in pancreatic cancer models” (European Journal of Nuclear Medicine and Molecular Imaging, 2022).

Data set [1] relates to PSN1 cells. The data set is described as follows: In vitro uptake and binding selectivity of [18F]rucaparib in PSN1 cells. Type of data set: cell-based, human. As for the experimental part: (§1) AsPC1 (1 × 10^5 cells/well) and PSN1 cells (7.5 × 10^4 cells/well) were seeded separately in 24-well plates (in 300 μL growth medium) and allowed to adhere for at least 20 h. […] To assess [^18F]rucaparib-binding selectivity, unlabelled PARP inhibitors, IMPDH2 or ALDH2 inhibitor, were added (100 μM, in 270 μL growth medium) for 45 min at 37 °C before addition of [^18F]rucaparib (156 kBq, 6.8 GBq/μmol; [^TotalF]rucaparib final concentration: 100 nM), and the cells were incubated at 37 °C for a further 45 min. Cell culture medium was removed, and cells were washed with PBS. Cells were lysed using RIPA buffer for 15 min at room temperature, and the amount of ^18F in the cell lysates was measured using an automated gamma counter (PerkinElmer), normalising for the number of cells.
(§2) Cells were lysed and the amount of ^18F in the cell lysates was measured as above.

For data set [2], the system named is PSN1 cells. Put plainly: Cell retention of [18F]rucaparib and [18F]olaparib in PSN1 cells. Format: cell-based, human. As for the experimental part: (§3) AsPC1 (1 × 10^5 cells/well) and PSN1 cells (7.5 × 10^4 cells/well) were exposed to [^18F]rucaparib (100 kBq, 4.8 GBq/μmol; [^TotalF]rucaparib final concentration: 258 nM) or [^18F]olaparib (400 kBq, 2.8 GBq/μmol: [^TotalF]olaparib final concentration: 242 nM) in 24-well plates at 37 °C for 30 min. Cell culture medium was removed, and cells were washed with PBS, followed by the addition of fresh medium (300 μL). Cells were then further incubated at 37 °C. Cell culture medium was removed, and cells were washed with PBS at different times (0–3 h). Cells were lysed using RIPA buffer for 15 min at room temperature, and the amount of ^18F in the cell lysates was measured as above.

Data set [3] has as its system PSN1 xenografts. The data set is described as follows: Dynamic PET/CT imaging of [18F]rucaparib in PSN1 tumour-bearing mice. Type of data set: in vivo, Balb/c nu/nu mice. The protocol: Female Balb/c nu/nu (OlaHsd-Foxn1^nu) mice, aged 4–6 weeks, were purchased from Envigo (UK). Animals were housed in IVC cages, up to 6 per cage, in an artificial day–night cycle facility. Food and water were provided ad libitum. PSN1 cells were harvested using trypsin, washed twice with PBS and reconstituted in PBS:Matrigel® Matrix High Concentration (1:1). Cell suspensions (PSN1: 2 × 10^6 cells/ 100 μL) were injected subcutaneously in the lower right flank. […] Animal was anesthetised by 4% isoflurane gas (0.5 L/min O2) and maintained at 2.5% at 37 °C throughout the duration of image acquisition. PET images were reconstructed using U-SPECT-Rec3.22 software (MILabs, Utrecht, The Netherlands), applying a pixel-based algorithm, ordered subset expectation maximisation (OSEM) with 6 subsets, 4 iterations and 0.8 mm voxel size for fluorine-18 (energy window settings 477.9–584.1 keV). Reconstructed PET and CT images were viewed and analysed using PMOD v.3.37 (PMOD Technologies, Zurich, Switzerland).

For data set [4], the system named is AsPC1 cells. Put plainly: Cell retention of [18F]rucaparib and [18F]olaparib in AsPC1 cells. Format: cell-based, human. As for the experimental part: as §3
Data set [5] concerns PSN1 xenografts. Put plainly: Ex vivo biodistribution of [18F]rucaparib in PSN1 tumour-bearing mice. Particulars: for Ex vivo biodistribution, Blood / Ex vivo biodistribution, Bone / Ex vivo biodistribution, Fat / Ex vivo biodistribution, Heart / Ex vivo biodistribution, Kidney / Ex vivo biodistribution, Large intestine / Ex vivo biodistribution, Lung / Ex vivo biodistribution, Muscle / Ex vivo biodistribution, Pancreas / Ex vivo biodistribution, Small intestine / Ex vivo biodistribution, Tumour: i.v.; for Tumour uptake / Tumour-to-blood (T/B) ratio: PSN1 xenografts; for Tumour uptake: mean ± SD. On the set-up: species or system Balb/c nu/nu mice. As for the experimental part: Female Balb/c nu/nu (OlaHsd-Foxn1^nu) mice, aged 4–6 weeks, were purchased from Envigo (UK). Animals were housed in IVC cages, up to 6 per cage, in an artificial day–night cycle facility. Food and water were provided ad libitum.
PSN1 cells were harvested using trypsin, washed twice with PBS and reconstituted in PBS:Matrigel® Matrix High Concentration (1:1). Cell suspensions (PSN1: 2 × 10^6 cells/ 100 μL) were injected subcutaneously in the lower right flank.
Animals were administered [^18F]rucaparib (0.87–11.38 MBq in 100 μL of PBS, Am = 1.5–30.9 GBq/μmol) by intravenous injection via the lateral tail vein. To evaluate the selectivity of tumour uptake, an excess of unlabelled rucaparib or olaparib (0.5 mg) was co-administered as a blocking agent in some animals. Dynamic PET images (1 h) were acquired using a MILabs VECTor^4 camera, equipped with an ultra-high resolution rat/mouse collimator (1.8 mm), followed by a cone-beam CT scan (55 kV, 0.19 mA) for anatomical reference and attenuation correction. Animal was anesthetised by 4% isoflurane gas (0.5 L/min O2) and maintained at 2.5% at 37 °C throughout the duration of image acquisition. PET images were reconstructed using U-SPECT-Rec3.22 software (MILabs, Utrecht, The Netherlands), applying a pixel-based algorithm, ordered subset expectation maximisation (OSEM) with 6 subsets, 4 iterations and 0.8 mm voxel size for fluorine-18 (energy window settings 477.9–584.1 keV). Reconstructed PET and CT images were viewed and analysed using PMOD v.3.37 (PMOD Technologies, Zurich, Switzerland).
Either 1 h or 2 h after radiolabelled compound injection, animals were euthanised. Selected organs, tissues and blood were removed, and the percentage of the injected dose per gram of tissue (%ID/g) was determined, using a HIDEX automated gamma counter.

Data set [6] relates to AsPC1 cells. Put plainly: In vitro uptake and binding selectivity of [18F]rucaparib in AsPC1 cells. Format: cell-based, human. The protocol: as §1, §2
Setting [7] is: PSN1 tumour-bearing mice, i.v., n=3.
[8] abbreviates: PSN1 tumour-bearing mice, i.v., n=3, biphasic.
Setting [9] is: 1 h post-injection, individual animals (n=3).
Setting [10] is: 2 h post-injection, individual animals (n=6).

The structures appear in SMILES notation. Several values for one entry are separate records, joined by “and”; a condition that tells them apart may be missing. Identical values can stand only once.

As for `CNCc1ccc(-c2[nH]c3cc([18F])cc4c3c2CCNC4=O)cc1` [[^18F]rucaparib], in data set [1] (PSN1 cells, [TotalF]rucaparib 258 nM, 37 °C, Fig. 1B), the “Cellular uptake (time)” value was less than 1 min. Also, the “Cell association of [18F]rucaparib” value in data set [1] (PSN1 versus AsPC1 cells, 64 nM and 258 nM, 37 °C, 30 min) is recorded as “higher in PSN1 cells than in AsPC1 cells”. For the same molecule, in data set [2], the “Uptake and retention compared with [TotalF]olaparib” value is reported as 100 fold. In addition, the Elimination pathways entry in data set [3] (PSN1 tumour-bearing mice, dynamic imaging and biodistribution) is “hepatobiliary and renal”. Further, the “Half-life for liver elimination” value in data set [3] (PSN1 tumour-bearing mice, i.v.) was 31 ± 19 min. This molecule yielded a Weighted blood half-life in data set [3] (PSN1 tumour-bearing mice, i.v., 8.9 μg or 27.5 nmol/kg) of 4.3 ± 0.62 min. For the same molecule, in data set [3] (setting [7]), the “Blood clearance, fraction of fast phase” value was found to be 54 ± 10% and the “Blood clearance, fraction of slow phase” value worked out at 46 ± 10%. Moreover, in data set [3] (setting [8]), the “Blood clearance, fast half-life” value is 1.7 ± 0.44 min and the “Blood clearance, slow half-life” value stood at 16 ± 10 min. Further, in data set [3] (PSN1 xenografts, 50 min post-injection), the “Tumour-to-muscle (T/M) ratio from PET/CT images” value is 2.3 ± 1.1. In data set [3] (PSN1 xenografts, dynamic PET), the “Time of tumour uptake (VOI analysis)” value is reported as not above 10 min. In addition, the “Time of uptake in kidney and bladder” value in data set [3] (dynamic PET, indicates fast renal clearance) is on record as not above 5 min. Moreover, in data set [4], the “Uptake and retention compared with [TotalF]olaparib” value was 100 fold. Moreover, in data set [5] (setting [9]), the “Ex vivo biodistribution, Blood” value was 3.51 %ID/g and 3.67 %ID/g and 3.59 %ID/g; the “Ex vivo biodistribution, Bone” value is 4.90 %ID/g and 6.79 %ID/g and 5.26 %ID/g; the “Ex vivo biodistribution, Fat” value is 6.53 %ID/g and 4.98 %ID/g and 6.82 %ID/g; the “Ex vivo biodistribution, Heart” value is 13.27 %ID/g and 16.24 %ID/g and 17.47 %ID/g. Besides, in data set [5] (setting [9]), the “Ex vivo biodistribution, Kidney” value is 17.24 %ID/g and 30.17 %ID/g and 36.00 %ID/g; the “Ex vivo biodistribution, Large intestine” value is 12.50 %ID/g and 16.33 %ID/g and 14.08 %ID/g; the “Ex vivo biodistribution, Lung” value was 17.76 %ID/g and 25.71 %ID/g and 27.51 %ID/g; the “Ex vivo biodistribution, Muscle” value was 2.63 %ID/g and 4.25 %ID/g and 3.13 %ID/g. In addition, in data set [5] (setting [9]), the “Ex vivo biodistribution, Pancreas” value was 19.47 %ID/g and 23.54 %ID/g and 23.22 %ID/g; the “Ex vivo biodistribution, Small intestine” value is 33.79 %ID/g and 46.24 %ID/g; the “Ex vivo biodistribution, Tumour” value was 5.25 %ID/g and 6.05 %ID/g and 5.16 %ID/g. In data set [5] (setting [10]), the “Ex vivo biodistribution, Blood” value is 0.92 %ID/g and 0.49 %ID/g and 0.48 %ID/g and 1.57 %ID/g and 0.51 %ID/g and 0.44 %ID/g; the “Ex vivo biodistribution, Bone” value was 3.49 %ID/g and 2.71 %ID/g and 2.38 %ID/g and 3.10 %ID/g and 2.18 %ID/g and 2.26 %ID/g; the “Ex vivo biodistribution, Fat” value is 1.32 %ID/g and 0.74 %ID/g and 0.84 %ID/g and 1.78 %ID/g and 1.03 %ID/g and 0.86 %ID/g; the “Ex vivo biodistribution, Heart” value is 2.44 %ID/g and 2.15 %ID/g and 1.73 %ID/g (2×) and 1.61 %ID/g and 1.27 %ID/g. Also, in data set [5] (setting [10]), the “Ex vivo biodistribution, Kidney” value was 7.28 %ID/g and 6.56 %ID/g and 5.54 %ID/g and 7.41 %ID/g and 4.70 %ID/g and 4.13 %ID/g; the “Ex vivo biodistribution, Large intestine” value is 23.81 %ID/g and 19.26 %ID/g and 15.83 %ID/g and 25.44 %ID/g and 36.97 %ID/g and 43.06 %ID/g; the “Ex vivo biodistribution, Lung” value is 8.77 %ID/g and 6.24 %ID/g and 4.58 %ID/g and 9.27 %ID/g and 5.27 %ID/g; the “Ex vivo biodistribution, Muscle” value was 2.51 %ID/g and 1.58 %ID/g and 1.90 %ID/g and 2.77 %ID/g and 1.57 %ID/g (2×). Also, in data set [5] (setting [10]), the “Ex vivo biodistribution, Pancreas” value is 13.99 %ID/g and 9.45 %ID/g and 9.78 %ID/g and 11.07 %ID/g and 9.35 %ID/g and 7.70 %ID/g; the “Ex vivo biodistribution, Small intestine” value is 16.44 %ID/g and 9.50 %ID/g and 19.42 %ID/g and 22.39 %ID/g and 10.51 %ID/g and 13.44 %ID/g; the “Ex vivo biodistribution, Tumour” value is 2.58 %ID/g and 2.10 %ID/g and 1.74 %ID/g and 2.60 %ID/g and 3.45 %ID/g and 2.99 %ID/g. The Tumour uptake in data set [5] (1 h after i.v. administration) is 5.5 ± 0.5 %ID/g and 5.49 ± 0.49 %ID/g. Also, the “Tumour-to-blood (T/B) ratio” value in data set [5] (1 h post-administration) amounted to 1.53 ± 0.11. Besides, in data set [5] (2 h post-administration), the “Tumour-to-blood (T/B) ratio” value was found to be 4.33 ± 2.1 and the Tumour uptake came to 2.2 ± 0.34 %ID/g. Also, the “Cellular uptake (time)” value in data set [6] ([TotalF]rucaparib 258 nM, 37 °C, Fig. 1B) is less than 1 min.
As to `COc1c(C)c2c(c(O)c1C/C=C(\C)CCC(=O)OCCN1CCOCC1)C(=O)OC2` [mycophenolate mofetil, reference compound], the “Blocking of [18F]rucaparib uptake” value was “significantly reduce” in data set [1] (PSN1 cells, unlabelled inhibitor 100 μM for 45 min before [18F]rucaparib (100 nM), further 45 min) and “significantly reduce” in data set [6] (unlabelled inhibitor 100 μM for 45 min before [18F]rucaparib (100 nM), further 45 min).
